Data from US9266838B2, “Substituted (E)-N′-(1-phenylethylidene)benzohydrazide analogs as histone demethylase inhibitors” (University of Utah Research Foundation, priority 2011, dated 2016).

How the values were obtained:
heme oxygenase 1 (HMOX1) = test: Expression array experiments (transcriptional changes); format: cell-based; conditions: multiple cell lines; data not shown
T-47D cells = test: Cell viability assay (ATPlite), T-47D; format: cell-based; conditions: Homo sapiens, T47D, 96 hours, read-out: Cell Growth, IC50
Description: Cells were cultured according to the procedures provided. […] Cells were cultured at 37° C. and 5% CO2.
Cell viability was determined using ATPlite™ Luminescence Assay System (PerkinElmer Inc., Waltham, Mass.) using the various cell-lines described above and in Table 4. Briefly, cells were seeded in 96-well plates and then treated with different concentrations of inhibitor (0.1% final DMSO concentration). After 96-hours of incubation, ATPlite detection reagent was added directly to the culture well. Luminescence was read 5 minutes later on an Envision microplate reader.
(§1) IC50 values are determined using GraphPad Prism 5 software. The data were entered as an X-Y plot into the software as percent inhibition for each concentration of the drug. The concentration values of the drug were log transformed and the nonlinear regression was carried out using the “sigmoidal dose-response (variable slope)” option within the GraphPad software to model the data and calculate IC50 values.

LSD1 = LSD1 (Homo sapiens, UniProt O60341); test: LSD1 histone demethylase assay (LSD1 Inhibitor Screening Assay Kit); format: biochemical
Description: Briefly, test compounds were diluted to 20× the desired test concentration in 100% DMSO and 2.5 μL of the diluted drug sample was added to a black 384-well plate. The LSD1 enzyme stock was diluted 17-fold with assay buffer and 40 μM of the diluted LSD1 enzyme was added to the appropriate wells.
as §1

SMILES | IC50 (LSD1) [nM] | also measured
C/C(=N\NC(=O)c1cccc(S(=O)(=O)N2CCOCC2)c1)c1cc(Cl)ccc1O [Compound 12, (E)-N′-(1-(5-chloro-2-hydroxyphenyl)ethylidene)-3-(morpholinosulfonyl)benzohydrazide] |  | transcriptional change of HMOX1 (heme oxygenase 1 (HMOX1)): one of the most consistently up-regulated genes
C/C(=N\NC(=O)c1cccc(S(=O)(=O)N2CCOCC2)c1)c1cccc(Cl)c1F [Compound 13, (E)-N′-(1-(3-chloro-2-fluorophenyl)ethylidene)-3-(morpholinosulfonyl)benzohydrazide] |  | IC50 (T-47D cells): > 10000 nM
C/C(=N\NC(=O)c1cccc(S(=O)(=O)N2CCC(C)CC2)c1)c1cc(Cl)ccc1O [Compound 26, (E)-N′-(1-(5-chloro-2-hydroxyphenyl)ethylidene)-3-((4-methylpiperidin-1-yl)sulfonyl)benzohydrazide] | 9.5 | 
CNS(=O)(=O)c1cccc(C(=O)N/N=C(\C)c2cc(Cl)ccc2O)c1 [Compound 29, (E)-3-(2-(1-(5-chloro-2-hydroxyphenyl)ethylidene)hydrazinecarbonyl)-N-methylbenzenesulfonamide] | 8.7 | 
C/C(=N\NC(=O)c1cccc(S(=O)(=O)N2CCN(C)CC2)c1)c1cc(Cl)ccc1O [Compound 35, (E)-N′-(1-(5-chloro-2-hydroxyphenyl)ethylidene)-3-((4-methylpiperazin-1-yl)sulfonyl)benzohydrazide] | < 10 | 
O=C(c1cccc(S(=O)(=O)N2CCOCC2)c1)n1ccc(-c2cc(Cl)ccc2O)n1 [Compound 38, (3-(5-chloro-2-hydroxyphenyl)-1H-pyrazol-1-yl)(3-(morpholinosulfonyl)phenyl)methanone] | > 3000 | 
